Data as given in the supplement of paper PMC10307832.

Experiments:
Assay in all cases: relative viability (nuclei count vs DMSO), 5 days (fraction); higher = more cells survive
Pictilisib + Navitoclax = compound: CS(=O)(=O)N1CCN(Cc2cc3nc(-c4cccc5[nH]ncc45)nc(N4CCOCC4)c3s2)CC1 [Pictilisib] + CC1(C)CCC(c2ccc(Cl)cc2)=C(CN2CCN(c3ccc(C(=O)NS(=O)(=O)c4ccc(N[C@H](CCN5CCOCC5)CSc5ccccc5)c(S(=O)(=O)C(F)(F)F)c4)cc3)CC2)C1 [Navitoclax] (partner 0.5 µM)
In short: (§1)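 After 5 days of treatment, lung cancer cells in 1536-well plates were fixed and stained in a single step (final 0.05% Triton X-100, 1% formaldehyde, 1 ug/ml Hoechst) and their nuclei counted on 4× images. Treatment had been applied by pin tool the day after seeding as one drug alone or as a fixed anchor-drug dose with five library-drug doses (not always all listed) in √10 steps. Relative viability is the nuclei count of treated wells divided by that of vehicle wells, and values are medians of duplicate plates.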

Pictilisib + Alpelisib = compound: CS(=O)(=O)N1CCN(Cc2cc3nc(-c4cccc5[nH]ncc45)nc(N4CCOCC4)c3s2)CC1 [Pictilisib] + Cc1nc(NC(=O)N2CCC[C@H]2C(N)=O)sc1-c1ccnc(C(C)(C)C(F)(F)F)c1 [Alpelisib] (partner 2 µM)
In short: as §1

Pictilisib + Bortezomib = compound: CS(=O)(=O)N1CCN(Cc2cc3nc(-c4cccc5[nH]ncc45)nc(N4CCOCC4)c3s2)CC1 [Pictilisib] + CC(C)C[C@H](NC(=O)[C@H](Cc1ccccc1)NC(=O)c1cnccn1)B(O)O [Bortezomib] (partner 0.002 µM)
In short: as §1

MK-2206 + Navitoclax = compound: NC1(c2ccc(-c3nc4ccn5c(=O)[nH]nc5c4cc3-c3ccccc3)cc2)CCC1 [MK-2206] + CC1(C)CCC(c2ccc(Cl)cc2)=C(CN2CCN(c3ccc(C(=O)NS(=O)(=O)c4ccc(N[C@H](CCN5CCOCC5)CSc5ccccc5)c(S(=O)(=O)C(F)(F)F)c4)cc3)CC2)C1 [Navitoclax] (partner 0.5 µM)
In short: as §1

MK-2206 + AZD7762 = compound: NC1(c2ccc(-c3nc4ccn5c(=O)[nH]nc5c4cc3-c3ccccc3)cc2)CCC1 [MK-2206] + NC(=O)Nc1cc(-c2cccc(F)c2)sc1C(=O)N[C@H]1CCCNC1 [AZD7762] (partner 0.2 µM)
In short: as §1

Cell Line: IA-LM
- relative viability (Pictilisib + Navitoclax; first compound 0.02 µM): 0.777
- relative viability (Pictilisib + Navitoclax; first compound 0.06325 µM): 0.898
- relative viability (Pictilisib + Navitoclax; first compound 0.6325 µM): 0.766
- relative viability (Pictilisib + Navitoclax; first compound 2 µM): 0.309
- relative viability (Pictilisib + Alpelisib; first compound 0.02 µM): 0.732
- relative viability (Pictilisib + Alpelisib; first compound 0.06325 µM): 0.982
- relative viability (Pictilisib + Alpelisib; first compound 0.6325 µM): 0.749
- relative viability (Pictilisib + Alpelisib; first compound 2 µM): 0.418
- relative viability (Pictilisib + Bortezomib; first compound 0.02 µM): 0.791
- relative viability (Pictilisib + Bortezomib; first compound 0.06325 µM): 0.721
- relative viability (Pictilisib + Bortezomib; first compound 0.6325 µM): 0.732
- relative viability (Pictilisib + Bortezomib; first compound 2 µM): 0.308
- relative viability (MK-2206 + Navitoclax; first compound 0.01 µM): 0.724
- relative viability (MK-2206 + Navitoclax; first compound 0.03162 µM): 0.835
- relative viability (MK-2206 + Navitoclax; first compound 0.3162 µM): 0.801
- relative viability (MK-2206 + Navitoclax; first compound 1 µM): 0.669

Cell Line: LCLC-103H
- relative viability (MK-2206 + AZD7762; first compound 0.01 µM): 0.751
- relative viability (MK-2206 + AZD7762; first compound 0.03162 µM): 0.818
- relative viability (MK-2206 + AZD7762; first compound 0.3162 µM): 0.765
- relative viability (MK-2206 + AZD7762; first compound 1 µM): 0.712
- relative viability (Pictilisib + Alpelisib; first compound 0.02 µM): 0.946
- relative viability (Pictilisib + Alpelisib; first compound 0.06325 µM): 1.03
- relative viability (Pictilisib + Alpelisib; first compound 0.6325 µM): 0.818
- relative viability (Pictilisib + Alpelisib; first compound 2 µM): 0.848
- relative viability (Pictilisib + Bortezomib; first compound 0.02 µM): 1.02
- relative viability (Pictilisib + Bortezomib; first compound 0.06325 µM): 0.982
- relative viability (Pictilisib + Bortezomib; first compound 0.6325 µM): 0.779
- relative viability (Pictilisib + Bortezomib; first compound 2 µM): 0.775

Cell Line: LK-2
- relative viability (Pictilisib + Navitoclax; first compound 0.02 µM): 0.879
- relative viability (Pictilisib + Navitoclax; first compound 0.06325 µM): 0.585
- relative viability (Pictilisib + Navitoclax; first compound 0.6325 µM): 0.63
- relative viability (Pictilisib + Navitoclax; first compound 2 µM): 0.321
- relative viability (MK-2206 + AZD7762; first compound 0.01 µM): 0.325
- relative viability (MK-2206 + AZD7762; first compound 0.03162 µM): 0.312
- relative viability (MK-2206 + AZD7762; first compound 0.3162 µM): 0.259
- relative viability (MK-2206 + AZD7762; first compound 1 µM): 0.182
- relative viability (Pictilisib + Alpelisib; first compound 0.02 µM): 1.16
- relative viability (Pictilisib + Alpelisib; first compound 0.06325 µM): 1.06
- relative viability (Pictilisib + Alpelisib; first compound 0.6325 µM): 0.925
- relative viability (Pictilisib + Alpelisib; first compound 2 µM): 0.905
- relative viability (MK-2206 + Navitoclax; first compound 0.01 µM): 0.837
- relative viability (MK-2206 + Navitoclax; first compound 0.03162 µM): 0.938
- relative viability (MK-2206 + Navitoclax; first compound 0.3162 µM): 0.684
- relative viability (MK-2206 + Navitoclax; first compound 1 µM): 0.61

Cell Line: NCI-H358
- relative viability (MK-2206 + AZD7762; first compound 0.01 µM): 0.628
- relative viability (MK-2206 + AZD7762; first compound 0.03162 µM): 0.423
- relative viability (MK-2206 + AZD7762; first compound 0.3162 µM): 0.552
- relative viability (MK-2206 + AZD7762; first compound 1 µM): 0.609
- relative viability (Pictilisib + Alpelisib; first compound 0.02 µM): 0.831
- relative viability (Pictilisib + Alpelisib; first compound 0.06325 µM): 0.981
- relative viability (Pictilisib + Alpelisib; first compound 0.6325 µM): 0.769
- relative viability (Pictilisib + Alpelisib; first compound 2 µM): 0.595

Cell Line: NCI-H520
- relative viability (Pictilisib + Navitoclax; first compound 0.02 µM): 1.17
- relative viability (Pictilisib + Navitoclax; first compound 0.06325 µM): 1.24
- relative viability (Pictilisib + Navitoclax; first compound 0.6325 µM): 0.599
- relative viability (Pictilisib + Navitoclax; first compound 2 µM): 0.134
- relative viability (Pictilisib + Alpelisib; first compound 0.02 µM): 0.996
- relative viability (Pictilisib + Alpelisib; first compound 0.06325 µM): 0.815
- relative viability (Pictilisib + Alpelisib; first compound 0.6325 µM): 0.724
- relative viability (Pictilisib + Alpelisib; first compound 2 µM): 0.267
- relative viability (Pictilisib + Bortezomib; first compound 0.02 µM): 0.632
- relative viability (Pictilisib + Bortezomib; first compound 0.06325 µM): 0.464
- relative viability (Pictilisib + Bortezomib; first compound 0.6325 µM): 0.291
- relative viability (Pictilisib + Bortezomib; first compound 2 µM): 0.156
- relative viability (MK-2206 + Navitoclax; first compound 0.01 µM): 1.11
- relative viability (MK-2206 + Navitoclax; first compound 0.03162 µM): 1.09
- relative viability (MK-2206 + Navitoclax; first compound 0.3162 µM): 0.701
- relative viability (MK-2206 + Navitoclax; first compound 1 µM): 0.489

Cell Line: NCI-H522
- relative viability (MK-2206 + AZD7762; first compound 0.01 µM): 0.85
- relative viability (MK-2206 + AZD7762; first compound 0.03162 µM): 0.763
- relative viability (MK-2206 + AZD7762; first compound 0.3162 µM): 0.993
- relative viability (MK-2206 + AZD7762; first compound 1 µM): 0.762

Cell Line: NCI-H650
- relative viability (MK-2206 + AZD7762; first compound 0.01 µM): 1
- relative viability (MK-2206 + AZD7762; first compound 0.03162 µM): 0.706
- relative viability (MK-2206 + AZD7762; first compound 0.3162 µM): 1.13
- relative viability (MK-2206 + AZD7762; first compound 1 µM): 1
- relative viability (Pictilisib + Alpelisib; first compound 0.02 µM): 1.05
- relative viability (Pictilisib + Alpelisib; first compound 0.06325 µM): 1.15
- relative viability (Pictilisib + Alpelisib; first compound 0.6325 µM): 1
- relative viability (Pictilisib + Alpelisib; first compound 2 µM): 0.888
- relative viability (Pictilisib + Bortezomib; first compound 0.02 µM): 1.04
- relative viability (Pictilisib + Bortezomib; first compound 0.06325 µM): 0.938
- relative viability (Pictilisib + Bortezomib; first compound 0.6325 µM): 0.526
- relative viability (Pictilisib + Bortezomib; first compound 2 µM): 0.445

Cell Line: NCI-H661
- relative viability (Pictilisib + Alpelisib; first compound 0.02 µM): 0.598
- relative viability (Pictilisib + Alpelisib; first compound 0.06325 µM): 0.794
- relative viability (Pictilisib + Alpelisib; first compound 0.6325 µM): 0.579
- relative viability (Pictilisib + Alpelisib; first compound 2 µM): 0.373
- relative viability (Pictilisib + Bortezomib; first compound 0.02 µM): 0.771
- relative viability (Pictilisib + Bortezomib; first compound 0.06325 µM): 0.738
- relative viability (Pictilisib + Bortezomib; first compound 0.6325 µM): 0.616
- relative viability (Pictilisib + Bortezomib; first compound 2 µM): 0.258

Cell Line: NCI-H1299
- relative viability (Pictilisib + Navitoclax; first compound 0.02 µM): 1.09
- relative viability (Pictilisib + Navitoclax; first compound 0.06325 µM): 1.05
- relative viability (Pictilisib + Navitoclax; first compound 0.6325 µM): 1.1
- relative viability (Pictilisib + Navitoclax; first compound 2 µM): 1.13
- relative viability (Pictilisib + Alpelisib; first compound 0.02 µM): 1.06
- relative viability (Pictilisib + Alpelisib; first compound 0.06325 µM): 1.07
- relative viability (Pictilisib + Alpelisib; first compound 0.6325 µM): 1.08
- relative viability (Pictilisib + Alpelisib; first compound 2 µM): 1.04
- relative viability (Pictilisib + Bortezomib; first compound 0.02 µM): 1.02
- relative viability (Pictilisib + Bortezomib; first compound 0.06325 µM): 1.04
- relative viability (Pictilisib + Bortezomib; first compound 0.6325 µM): 1.07
- relative viability (Pictilisib + Bortezomib; first compound 2 µM): 1.05
- relative viability (MK-2206 + Navitoclax; first compound 0.01 µM): 1.09
- relative viability (MK-2206 + Navitoclax; first compound 0.03162 µM): 1.05
- relative viability (MK-2206 + Navitoclax; first compound 0.3162 µM): 1.06
- relative viability (MK-2206 + Navitoclax; first compound 1 µM): 1.05

Cell Line: NCI-H1395
- relative viability (Pictilisib + Navitoclax; first compound 0.02 µM): 1.17
- relative viability (Pictilisib + Navitoclax; first compound 0.06325 µM): 1.27
- relative viability (Pictilisib + Navitoclax; first compound 0.6325 µM): 0.99
- relative viability (Pictilisib + Navitoclax; first compound 2 µM): 0.6
- relative viability (MK-2206 + AZD7762; first compound 0.01 µM): 0.407
- relative viability (MK-2206 + AZD7762; first compound 0.03162 µM): 0.369
- relative viability (MK-2206 + AZD7762; first compound 0.3162 µM): 0.388
- relative viability (MK-2206 + AZD7762; first compound 1 µM): 0.351
- relative viability (Pictilisib + Alpelisib; first compound 0.02 µM): 1.11
- relative viability (Pictilisib + Alpelisib; first compound 0.06325 µM): 1.03
- relative viability (Pictilisib + Alpelisib; first compound 0.6325 µM): 0.855
- relative viability (Pictilisib + Alpelisib; first compound 2 µM): 0.531
- relative viability (MK-2206 + Navitoclax; first compound 0.01 µM): 1.17
- relative viability (MK-2206 + Navitoclax; first compound 0.03162 µM): 1.63
- relative viability (MK-2206 + Navitoclax; first compound 0.3162 µM): 1.12
- relative viability (MK-2206 + Navitoclax; first compound 1 µM): 0.927

Cell Line: NCI-H1563
- relative viability (Pictilisib + Alpelisib; first compound 0.02 µM): 1.06
- relative viability (Pictilisib + Alpelisib; first compound 0.06325 µM): 0.851
- relative viability (Pictilisib + Alpelisib; first compound 0.6325 µM): 0.724
- relative viability (Pictilisib + Alpelisib; first compound 2 µM): 0.591
- relative viability (Pictilisib + Bortezomib; first compound 0.02 µM): 0.992
- relative viability (Pictilisib + Bortezomib; first compound 0.06325 µM): 0.839
- relative viability (Pictilisib + Bortezomib; first compound 0.6325 µM): 0.605
- relative viability (Pictilisib + Bortezomib; first compound 2 µM): 0.554

Cell Line: NCI-H1648
- relative viability (MK-2206 + AZD7762; first compound 0.01 µM): 0.657
- relative viability (MK-2206 + AZD7762; first compound 0.03162 µM): 0.481
- relative viability (MK-2206 + AZD7762; first compound 0.3162 µM): 0.797
- relative viability (MK-2206 + AZD7762; first compound 1 µM): 0.855

Cell Line: NCI-H1650
- relative viability (Pictilisib + Navitoclax; first compound 0.02 µM): 1.21
- relative viability (Pictilisib + Navitoclax; first compound 0.06325 µM): 1.19
- relative viability (Pictilisib + Navitoclax; first compound 0.6325 µM): 0.828
- relative viability (Pictilisib + Navitoclax; first compound 2 µM): 0.31
- relative viability (Pictilisib + Bortezomib; first compound 0.02 µM): 0.199
- relative viability (Pictilisib + Bortezomib; first compound 0.06325 µM): 0.205
- relative viability (Pictilisib + Bortezomib; first compound 0.6325 µM): 0.207
- relative viability (Pictilisib + Bortezomib; first compound 2 µM): 0.172
- relative viability (MK-2206 + Navitoclax; first compound 0.01 µM): 1.11
- relative viability (MK-2206 + Navitoclax; first compound 0.03162 µM): 1
- relative viability (MK-2206 + Navitoclax; first compound 0.3162 µM): 1.06
- relative viability (MK-2206 + Navitoclax; first compound 1 µM): 1.02
